The structures appear in SMILES notation. Non-standard residues stand in square brackets, D forms with d. Residues, ends and D or L forms follow the SMILES beside them. pGlu = O=C1CC[C@@H](C(=O)O)N1

The test system of data set [1] is cells. As to the kind of experiment: Transduction of cells with protransduzin B (vectors preincubated with peptide fibrils). The data set is classed as cell-based. As to conditions: protransduzin B 25 μg/ml added to vectors, cells incubated 2 days. Here is the method: Dissolve 0.5 mg of protransduzin B in 50 μl of DMSO. Then add 450 μl of PBS to the solution, fibrils forming within 3 min. Add this stock solution (1 mg/ml) to the vectors to obtain a concentration of protransduzin B of 25 μg/ml. Vortex the solution for 1 min, then centrifuge with 5000 g for 5 min. The supernatant is discarded, and the pellet is suspended in a little PBS and added to the cells. The cells are incubated in an incubator for 2 days.

Data set [2] in a line: Storage stability in aqueous solution followed by HPLC (FIG. 1). The following applies: storage at 4° C. for 13 days, in vitro. The data set is classed as physicochemical. The procedure:
FIG. 1 is a high pressure liquid chromatography (HPLC) chromatogram of protransduzin A and protransduzin B.
In the left column of FIG. 1 (HPLC chromatogram), results for protransduzin A upon storage for 0-13 days at −20° C. and at 4° C. (13 days) are compared with the results for protransduzin B under the same conditions.

As to `CC[C@H](C)[C@H](NC(=O)[C@H](CCCCN)NC(=O)[C@H](CS)NC(=O)[C@@H]1CCC(=O)N1)C(=O)N[C@@H](CCCCN)C(=O)N[C@@H](CCC(N)=O)C(=O)N[C@H](C(=O)N[C@H](C(=O)N[C@@H](CC(N)=O)C(=O)N[C@@H](CCSC)C(=O)N[C@@H](Cc1c[nH]c2ccccc12)C(=O)N[C@@H](CCC(N)=O)C(=O)O)[C@@H](C)CC)[C@@H](C)CC` [protransduzin B] ([pGlu]CKIKQIINMWQ-OH), in data set [1], the cells transduced result is “Up to 96%” and the transduction rate entry was “significantly enhanced”. Besides, the “degradation upon storage (HPLC peak height)” value in data set [2] was “hardly degraded at all”.

Source of the values: patent publication US20190100557A1, “PRO[…], A GENE TRANSFER ENHANCER” (Pharis Biotec GmbH, priority 2013, published 2019).
